Test results from patent US9260739B2, “Method for the detection of acid production by cariogenic bacteria” (Ivoclar Vivadent AG, priority 2010, dated 2016).

Columns and labels:
pK of pH indicators = type: physicochemical; settings: pH indicator
Procedure: In an alternative embodiment, the pH is determined using a pH indicator which changes colour on acid formation. The pH indicator is preferably added to the cariogenic bacteria together with the carbon source, e.g. by joint immobilization of pH indicator and carbon source on a test strip or by simultaneous addition of pH indicator and carbon source (preferably in the form of a single solution) to a diluted, undiluted or concentrated plaque or saliva sample. […] These comprise, e.g., the indicators bromocresol purple, bromocresol green, m-cresol purple, bromothymol blue, phenol red and chlorophenol red. […] The incubation time that must be applied until a colour change can be detected, depends on the carbon sources and test reagents used and also on their absolute and relative quantitative ratios to one another. In a preferred embodiment, the time period to a colour change of the pH indicator is less than 60 minutes, less than 45 minutes, less than 30 minutes, less than 20 minutes or less than 15 minutes after mixing bacteria, carbon source and indicator.

S. sobrinus = assay: Acid production in vitro by pure culture, colour change of pH indicator; type: cell-based; settings: carbon source at 20% in the reaction batch, only S. sobrinus, FIG. 1
Procedure: Stock cultures of the strain selected for the experiments were stored on CRYOBANK (Mast Diagnostica, CRYO/M) ceramic supports at a temperature of −80° C. For culturing, a ceramic ring was placed into 10 ml of nutrient medium and incubated 14-72 h. This culture was designated passage 0 (P0). Then, 100 μl of culture were inoculated into 10 ml of fresh medium and incubated for 24 h. Cultures of passage 2 were used for the subsequent experiments on acid production. The cultures were diluted in this case until an absorption at 650 nm of about 0.6-1.0 was obtained. The bacterial suspensions were centrifuged at 8000 rpm for 5 minutes. The culture supernatant was removed and the pellet was resuspended in the same volume of water (10 ml, deionized, sterile). The sample was centrifuged again (8000 rpm, 5 minutes) and the supernatant was removed. The pellet was subsequently resuspended in 1 ml of deionized water which corresponds to 1/10 of the original volume. […] Then, the appropriate pH was adjusted and the mixture was filled up to the calculated volume using deionized water. […] After addition of the bacterial suspension to the respective test solution, the colour change of the pH indicator was assessed visually against a reference sample (only test solution) at regular intervals. […]

| SMILES | pK (pK of pH indicators) | time within which acid formation can be detected (S. sobrinus) [min] |
| --- | --- | --- |
| Cc1c(C2(c3cc(Br)c(O)c(Br)c3C)OS(=O)(=O)c3ccccc32)cc(Br)c(O)c1Br [Bromocresol green] | 4.7 |  |
| Cc1cc(C2(c3cc(C)c(O)c(Br)c3)OS(=O)(=O)c3ccccc32)cc(Br)c1O [Bromocresol purple] | 6 |  |
| Cc1c(C2(c3cc(C(C)C)c(O)c(Br)c3C)OS(=O)(=O)c3ccccc32)cc(C(C)C)c(O)c1Br [Bromothymol blue] | 7 |  |
| O=S1(=O)OC(c2ccc(O)c(Cl)c2)(c2ccc(O)c(Cl)c2)c2ccccc21 [Chlorophenol red] | 5.6 |  |
| Cc1cc(O)ccc1C1(c2ccc(O)cc2C)OS(=O)(=O)c2ccccc21 [m-Cresol purple] | 8.2 |  |
| OC[C@H]1O[C@@](CO)(O[C@H]2O[C@H](CO)[C@@H](O)[C@H](O)[C@H]2O)[C@@H](O)[C@@H]1O [sucrose] |  | ≤ 15 |
